Here are results for 4 compounds from ChEMBL document CHEMBL1129438, “Neighboring group catalysis in the design of nucleotide prodrugs” (J Med Chem, 1996).

A short description of series [1]: Half life (t 1/2) during pig liver esterase-catalyzed hydrolysis. Format: ADME, organism-based, Sus scrofa.
Series [2] can be described thus: Half life (t 1/2) during base-catalyzed hydrolysis. Type of series: ADME.
Series [3] in a line: Half life (t 1/2) during hydrolysis caused by human serum. Format: ADME, organism-based.
Series [4] can be described thus: Half life (t 1/2) during hydrolysis catalyzed by brain extract. Format: ADME, tissue-based.

In general, half-life refers to the time needed for the level to fall by half in the phase considered. The low end stands for fast loss, the high end for slow loss. Consider `O=C(OC1O[C@H](CO)[C@@H](O)[C@H](O)[C@H]1O)c1ccccc1OP(=O)(OC[C@@H]1CC[C@H](n2ccc(=O)[nH]c2=O)O1)OC[C@@H]1CC[C@H](n2ccc(=O)[nH]c2=O)O1` (stereo partly specified), for which the half-life was above 48 h in series [1], 17 h in series [2], 48 h in series [3] and above 72 h in series [4].
The like results for `[N-]=[N+]=N[C@H]1C[C@H](n2ccc(=O)[nH]c2=O)O[C@@H]1COP(=O)(OC[C@H]1O[C@@H](n2ccc(=O)[nH]c2=O)C[C@@H]1N=[N+]=[N-])Oc1ccccc1` were, in that order, 17 h, 17 h, 17 h and 17 h.
The like results for `COC(=O)c1ccccc1OP(=O)(OC[C@H]1O[C@@H](n2ccc(=O)[nH]c2=O)C[C@@H]1N=[N+]=[N-])OC[C@H]1O[C@@H](n2ccc(=O)[nH]c2=O)C[C@@H]1N=[N+]=[N-]` were, in that order, 20 h, 1.1 h, 4 h and 4 h.
For `[N-]=[N+]=N[C@H]1C[C@H](n2ccc(=O)[nH]c2=O)O[C@@H]1COP(=O)(OC[C@H]1O[C@@H](n2ccc(=O)[nH]c2=O)C[C@@H]1N=[N+]=[N-])Oc1ccccc1C(=O)Oc1ccccc1` the same measures were 1 h, 1.1 h, 4 h and 5 h.
